Data reported in US20260258048A1, “LACTAM-CONTAINING IMIDAZOPYRIDAZINE IL-17 INHIBITOR COMPOUNDS” (Janssen Pharmaceutica NV, priority 2023, published 2026).

Assays:
[1] = target: IL-17A(FLAG-tagged): IL-17RA(His-tagged) (Homo sapiens, UniProt Q16552, K93Q); test: IL-17A(FLAG-tagged): IL-17RA(His-tagged) binding disruption Eu-HTRF assay; details: class of the average IC50 where tested more than once
Description: IL-17A(FLAG-tagged): IL-17RA(His-tagged) binding disruption Eu-HTRF assay An antibody directed against the FLAG tag of IL-17A (SEQ ID NO: 1) is labeled with the HTRF donor chromophore (Europium-cryptate). IL-17A is present as a dimer that is “locked into” this quaternary structure due to the formation of loop-spanning intramolecular disulfide bridges. The construct of IL-17RA used in the assay excludes the […] portion of the receptor and is fused to a C-terminal 10×His tag (SEQ ID NO:2). An antibody directed against the His tag of the IL-17RA chimera is labeled with the HTRF acceptor chromophore (“D2”). The fluorescence-resonance energy transfer (FRET) depends on the vicinity of the donor chromophore to the acceptor, and interruption of the binding between the IL-17A and IL-17RA causes the reduction/loss of FRET. Therefore, this assay allows to evaluate the compound effect on the binding IL-17A and IL-17RA by monitoring the fluorescence intensity of donor vs acceptor. The assay is run as described below.
40 nl of 2-fold serial diluted compound solution for total 22 dilution points is added into each well of a 1536-well, white, low-volume, non-binding plate (Greiner #782904), then 2 μl of FLAG tagged IL-17A at 2× final concentration (1 μM) in solution of PBS+0.01% Triton-X100 is added to each well. The assay plate is briefly centrifuged then incubated for 1 h at rt. A mixed solution is prepared containing 2×5 nM 10HIS×IL-17RA, 2×2.5 nM Eu-anti-FLAG (CISBIO), 2×5 nM D2-anti-HIS (CISBIO) in PBS+0.01% Triton-X100+200 mM Potassium Fluoride (Sigma 60238) and 2 μl of mix is added to each well of the assay plate. The plate is briefly centrifuged then incubated for 2 h at rt. The HTRF intensities at the wavelength of donor (615 nm) and acceptor (665 nm) are measured using BMG Pherastar. The ratio between intensities at two wavelengths is calculated and plotted against the compound concentration and the data is fitted to a one-site competition model to yield IC50 of the compound.

[2] = test system: IL-17A-induced G-CSF production in human normal keratinocyte (NHK); test: NHK assay: IL-17A-induced G-CSF production in normal human keratinocytes; assay type: cell-based; details: Homo sapiens, Keratinocyte, 24 h, IL-17A 5 ng/mL, class of the average IC50 where tested more than once
Summary of the method: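 Adult keratinocytes at 3000-4000 cells/well; recombinant human IL-17A pre-incubated 1 h at rt with titrated compound, then added to cells (final 5 ng/mL IL-17A, 0.2% DMSO, 5% FBS) for 24 h at 37 °C. Supernatant G-CSF quantified by HTRF against a standard curve to give IC50; viability checked by CellTiter-Glo versus DMSO.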

UniProt Q16552, sequence (Q16552 with tags, fused parts or gaps K93Q): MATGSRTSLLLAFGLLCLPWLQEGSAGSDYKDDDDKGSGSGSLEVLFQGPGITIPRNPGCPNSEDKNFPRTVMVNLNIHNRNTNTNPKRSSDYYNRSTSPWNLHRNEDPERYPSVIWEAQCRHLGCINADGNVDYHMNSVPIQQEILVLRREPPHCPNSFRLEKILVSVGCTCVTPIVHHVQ

IC50 [1] | SMILES | IC50 [2]
< 0.4 µM | O=C(N[C@H](c1cn2ncc(C[C@@H]3C[C@@H](C(F)(F)F)NC3=O)cc2n1)C1CCC(F)(F)CC1)c1nonc1C1CC1 (relative stereo) [Example 70, 4-Cyclopropyl-N—((S)-(4,4-difluorocyclohexyl)(7-(((3R*,5S*)-2-oxo-5-(trifluoromethyl)pyrrolidin-3-yl)methyl)imidazo[1,2-b]pyridazin-2-yl)methyl)-1,2,5-oxadiazole-3-carboxamide] | < 0.4 µM
0.4 to 4 µM | O=C(N[C@H](c1cn2ncc(C[C@H]3C[C@@H](C(F)(F)F)NC3=O)cc2n1)C1CCC(F)(F)CC1)c1nonc1C1CC1 (relative stereo) [Example 71, 4-Cyclopropyl-N—((S)-(4,4-difluorocyclohexyl)(7-(((3S*,5S*)-2-oxo-5-(trifluoromethyl)pyrrolidin-3-yl)methyl)imidazo[1,2-b]pyridazin-2-yl)methyl)-1,2,5-oxadiazole-3-carboxamide] | > 4 µM
0.4 to 4 µM | O=C(N[C@H](c1cn2ncc([C@@H](O)[C@@H]3C[C@@H](C(F)(F)F)NC3=O)cc2n1)C1CCC(F)(F)CC1)c1nonc1C1CC1 (relative stereo) [Example 72, 4-Cyclopropyl-N—((S)-(4,4-difluorocyclohexyl(7-((S*)-hydroxy((3S*,5S*)-2-oxo-5-(trifluoromethyl)pyrrolidin-3-yl)methyl)imidazo[1,2-b]pyridazin-2-yl)methyl)-1,2,5-oxadiazole-3-carboxamide] | 0.4 to 4 µM
0.4 to 4 µM | O=C(N[C@H](c1cn2ncc([C@@H](O)[C@H]3C[C@@H](C(F)(F)F)NC3=O)cc2n1)C1CCC(F)(F)CC1)c1nonc1C1CC1 (relative stereo) [Example 73] | 0.4 to 4 µM
< 0.4 µM | O=C(N[C@H](c1cn2ncc([C@H](O)[C@@H]3C[C@@H](C(F)(F)F)NC3=O)cc2n1)C1CCC(F)(F)CC1)c1nonc1C1CC1 (relative stereo) [Example 75, 4-Cyclopropyl-N—((S)-(4,4-difluorocyclohexyl)(7-((R*)-hydroxy((3S*,5S*)-2-oxo-5-(trifluoromethyl)pyrrolidin-3-yl)methyl)imidazo[1,2-b]pyridazin-2-yl)methyl)-1,2,5-oxadiazole-3-carboxamide] | < 0.4 µM
> 4 µM | O=C(N[C@H](c1cn2ncc([C@H](O)[C@H]3C[C@@H](C(F)(F)F)NC3=O)cc2n1)C1CCC(F)(F)CC1)c1nonc1C1CC1 (relative stereo) [Example 77, 4-Cyclopropyl-N—((S)-(4,4-difluorocyclohexyl)(7-((R*)-hydroxy((3R*,5S*)-2-oxo-5-(trifluoromethyl)pyrrolidin-3-yl)methyl)imidazo[1,2-b]pyridazin-2-yl)methyl)-1,2,5-oxadiazole-3-carboxamide] | 0.4 to 4 µM
> 4 µM | C[C@@H](c1cnn2cc([C@@H](NC(=O)c3nonc3C3CC3)C3CCC(F)(F)CC3)nc2c1)[C@H]1C[C@@H](C(F)(F)F)NC1=O (relative stereo) [Example 78, 4-Cyclopropyl-N—((S)-(4,4-difluorocyclohexyl)(7-((R*)-1-((3R*,5S)-2-oxo-5-(trifluoromethyl)pyrrolidin-3-yl)ethyl)imidazo[1,2-b]pyridazin-2-yl)methyl)-1,2,5-oxadiazole-3-carboxamide] | > 4 µM
< 0.4 µM | C[C@H](c1cnn2cc([C@@H](NC(=O)c3nonc3C3CC3)C3CCC(F)(F)CC3)nc2c1)[C@H]1C[C@@H](C(F)(F)F)NC1=O (relative stereo) [Example 79, 4-Cyclopropyl-N—((S)-(4,4-difluorocyclohexyl)(7-((S*)—1-((3R*,5S)-2-oxo-5-(trifluoromethyl)pyrrolidin-3-yl)ethyl)imidazo[1,2-b]pyridazin-2-yl)methyl)-1,2,5-oxadiazole-3-carboxamide] | < 0.4 µM
< 0.4 µM | C[C@H](c1cnn2cc([C@@H](NC(=O)c3nonc3C3CC3)C3CCC(F)(F)CC3)nc2c1)[C@@H]1C[C@@H](C(F)(F)F)NC1=O (relative stereo) [Example 81, 4-Cyclopropyl-N—((S)-(4,4-difluorocyclohexyl)(7-((S*)-1-((3S*,5S)-2-oxo-5-(trifluoromethyl)pyrrolidin-3-yl)ethyl)imidazo[1,2-b]pyridazin-2-yl)methyl)-1,2,5-oxadiazole-3-carboxamide] | < 0.4 µM
0.4 to 4 µM | C[C@H]1C[C@@H](Cc2cnn3cc([C@@H](NC(=O)c4nonc4C4CC4)C4CCC(F)(F)CC4)nc3c2)C(=O)N1 (relative stereo) [Example 82, 4-Cyclopropyl-N—((S)-(4,4-difluorocyclohexyl)(7-(((3R*,5S*)-5-methyl-2-oxopyrrolidin-3-yl)methyl)imidazo[1,2-b]pyridazin-2-yl)methyl)-1,2,5-oxadiazole-3-carboxamide] | > 4 µM
< 0.4 µM | C[C@H]1C[C@H](Cc2cnn3cc([C@@H](NC(=O)c4nonc4C4CC4)C4CCC(F)(F)CC4)nc3c2)C(=O)N1 (relative stereo) [Example 83, 4-Cyclopropyl-N—((S)-(4,4-difluorocyclohexyl)(7-(((3S*,5S*)-5-methyl-2-oxopyrrolidin-3-yl)methyl)imidazo[1,2-b]pyridazin-2-yl)methyl)-1,2,5-oxadiazole-3-carboxamide] | < 0.4 µM
0.4 to 4 µM | C[C@@H]1C[C@H](Cc2cnn3cc([C@@H](NC(=O)c4nonc4C4CC4)C4CCC(F)(F)CC4)nc3c2)C(=O)N1 (relative stereo) [Example 85, 4-Cyclopropyl-N—((S)-(4,4-difluorocyclohexyl(7-(((3S*,5R*)-5-methyl-2-oxopyrrolidin-3-yl)methyl)imidazo[1,2-b]pyridazin-2-yl)methyl)-1,2,5-oxadiazole-3-carboxamide] | > 4 µM
0.4 to 4 µM | C[C@H]1CNC(=O)[C@H]1Cc1cnn2cc([C@@H](NC(=O)c3nonc3C3CC3)C3CCC(F)(F)CC3)nc2c1 (relative stereo) [Example 86, 4-Cyclopropyl-N—[(S)-(4,4-difluorocyclohexyl)-[7-[[(3S*,4R*)-4-methyl-2-oxo-pyrrolidin-3-yl]methyl]imidazo[1,2-b]pyridazin-2-yl]methyl]-1,2,5-oxadiazole-3-carboxamide] | > 4 µM
0.4 to 4 µM | C[C@@H]1CNC(=O)[C@@H]1Cc1cnn2cc([C@@H](NC(=O)c3nonc3C3CC3)C3CCC(F)(F)CC3)nc2c1 (relative stereo) [Example 88, 4-Cyclopropyl-N—[(S)-(4,4-difluorocyclohexyl)-[7-[[(3R*,4S*)-4-methyl-2-oxo-pyrrolidin-3-yl]methyl]imidazo[1,2-b]pyridazin-2-yl]methyl]-1,2,5-oxadiazole-3-carboxamide] | > 4 µM
< 0.4 µM | CC[C@@H]1C[C@H](Cc2cnn3cc([C@@H](NC(=O)c4nonc4C4CC4)C4CCC(F)(F)CC4)nc3c2)C(=O)N1 (relative stereo) [Example 89, 4-Cyclopropyl-N—[(S)-(4,4-difluorocyclohexyl)-[7-[[(3S*,5R*)-5-ethyl-2-oxo-pyrrolidin-3-yl]methyl]imidazo[1,2-b]pyridazin-2-yl]methyl]-1,2,5-oxadiazole-3-carboxamide] | > 4 µM
0.4 to 4 µM | CC(C)[C@H]1C[C@H](Cc2cnn3cc([C@@H](NC(=O)c4nonc4C4CC4)C4CCC(F)(F)CC4)nc3c2)C(=O)N1 (relative stereo) [Example 93, 4-Cyclopropyl-N—[(S)-(4,4-difluorocyclohexyl)-[7-[[(3S*,5R*)-5-isopropyl-2-oxo-pyrrolidin-3-yl]methyl]imidazo[1,2-b]pyridazin-2-yl]methyl]-1,2,5-oxadiazole-3-carboxamide] | 0.4 to 4 µM
< 0.4 µM | CC(C)[C@H]1C[C@@H](Cc2cnn3cc([C@@H](NC(=O)c4nonc4C4CC4)C4CCC(F)(F)CC4)nc3c2)C(=O)N1 (relative stereo) [Example 94, 4-Cyclopropyl-N—[(S)-(4,4-difluorocyclohexyl)-[7-[[(3R*,5R*)-5-isopropyl-2-oxo-pyrrolidin-3-yl]methyl]imidazo[1,2-b]pyridazin-2-yl]methyl]-1,2,5-oxadiazole-3-carboxamide] | < 0.4 µM
